Source: patent US20210308093A1, “ACTIVATOR FOR SIMULTANEOUSLY ACTIVATING OXIDATIVE PHOSPHORYLATION AND INHIBITING GLYCOLYSIS AND USE THEREOF” (LANZHOU UNIVERSITY, priority 2019, published 2021)
Entries after “also recorded” stand apart in the source; their conditions may differ.

Columns and labels:
[1] = tested on: diethylnitrosamine-induced hepatocellular carcinoma; settings: 400 mg/kg by gavage daily for 12 weeks
Description: (§1) The present disclosure carries out experiments to test proliferation inhibition effects of baicalein on hepatocellular-carcinoma cell lines HuH7 and HepG2 respectively, with IC50 values calculated. […] Moreover, the present disclosure establishes a diethylnitrosamine-induced mouse liver cancer model which is then intervened with baicalein.
(§2) All animal operations were carried out based on a protocol approved by the Animal Research Committee of Peking University, China, in accordance with the “Guidelines for Care and Use of Laboratory Animals” (NIH Publication No. 86-23, revised in 1985). All mice (C57BL/6j, Charles River, Beijing, China) were kept in a temperature-controlled barrier facility at Laboratory Animal Center in Peking University (laboratory animal facility approved by AAALAC) with a 12 h light/dark cycle, and had free access to food and water. Only male animals were used Animals were randomly grouped based on weight level. Five mice were selected for each group to meet requirements for statistical significance. A randomised, comparative, and single-blinded test was used. For wild littermates, modeling with diethylnitrosamine was started at 6 weeks of age and maintained for 24 weeks. After 12 weeks of modeling, 400 mg/kg baicalein (40 mg/mL saline) was administered by gavage daily for another 12 weeks, and then liver disease-related symptoms of these mice were analyzed.
(§3) A liver sample cut from a same leaf of each animal was fixed in 4% paraformaldehyde overnight at room temperature, dehydrated with an ethanol gradient, infiltrated with xylene and embedded in paraffin. A paraffin embedded tissue was used to prepare serial sections 5 μm thick for hematoxylin and eosin (H&E) staining.

[2] = mouse, in vivo
Description: as §1, §2, §3

[3] = tested on: oxidative phosphorylation in HuH7 cells; assay: Measurement of oxidative phosphorylation and glycolysis in HuH7 cells (Seahorse XF); format: cell-based
Description: Based on the above results, effect of baicalein on oxidative phosphorylation needs to be clarified initially. Therefore, effects of different concentrations of baicalein on oxidative phosphorylation are tested at a cellular level. […] Further analysis finds that, baicalein (100 μM) can improve basal respiration value, maximum respiration value and ATP production in oxidative phosphorylation. […] In order to further confirm effect of baicalein on the oxidative phosphorylation, the present disclosure further extracts mitochondria, a main site where the oxidative phosphorylation locates, and tests effect of baicalein concentration gradient and incubation time gradient on oxidative phosphorylation in the mitochondria. […] At this point, the present disclosure discovers a natural activator of the oxidative phosphorylation, the baicalein. […] 1,000 cells or 4 μg mitochondria were added to the well plate provided by the Seahorse detection kit (Agilent, 103275-100). Related measurements were carried out following instructions.

[4] = tested on: HepG2 cells; assay: MTT assay, proliferation inhibition of hepatocellular-carcinoma cell line HepG2; format: cell-based
Description: as §1
(§4) Hela, HepG2, and HuH7 cells (from China Center for Type Culture Collection (Wuhan, China)) were cultured at 37° C. with 5% CO2 in Dulbecco's modified Eagle medium (DMEM, Thermo Fisher Scientific) supplemented with 10% fetal bovine serum (Thermo Fisher Scientific) and 1% penicillin-streptomycin (Thermo Fisher Scientific).
(§5) 10^4 cells were added to a 96-well plate. 100 μL of pre-warmed medium was added to each well. After attachment, the cells were starved in a serum-free medium for 24 h, and then transferred to a normal medium containing 100 μM baicalein and cultured for another 24 h. After treatment, the cells were incubated with 100 μL of conventional medium containing 50 μg MTT (Sigma-Aldrich) for 4 h. Finally, purple precipitates were dissolved in 200 μL of DMSO (Sigma-Aldrich), and absorbance at 490 nm was measured by a microplate reader (Bio-Rad).

[5] = tested on: HuH7 cells; assay: siRNA knockdown of key enzyme of oxidative phosphorylation, effect on anti-cancer activity (MTT, HuH7); format: cell-based
Description: With quantitative proteomics analysis, the present disclosure finds that the natural product baicalein can activate the oxidative phosphorylation. Then, it is necessary to clarify relationship between activation of the oxidative phosphorylation by baicalein and anti-cancer activity thereof. Cancer cells have the “Warburg effect”, that is, cancer cells tend to use glycolysis in replace of the oxidative phosphorylation which normal cells tend to use, so that cancer cells grow at a much faster rate than normal cells. […] The present disclosure verifies this phenomenon in HepG2 and HuH7 cells. […] (See FIG. 4)
The siRNA constructs listed below were designed and synthesized by GenePharma (Shanghai, China). At a modeling stage before baicalein treatment, interference was performed based on the RNAiMAX (Thermo Fisher Scientific) protocol.
as §5

[6] = tested on: oxidative phosphorylation in HepG2 cells; assay: Measurement of oxidative phosphorylation and glycolysis in HepG2 cells (Seahorse XF); format: cell-based
Description: With quantitative proteomics analysis, the present disclosure finds that the natural product baicalein can activate the oxidative phosphorylation. Then, it is necessary to clarify relationship between activation of the oxidative phosphorylation by baicalein and anti-cancer activity thereof. Cancer cells have the “Warburg effect”, that is, cancer cells tend to use glycolysis in replace of the oxidative phosphorylation which normal cells tend to use, so that cancer cells grow at a much faster rate than normal cells. […] The present disclosure verifies this phenomenon in HepG2 and HuH7 cells. […] 1,000 cells or 4 μg mitochondria were added to the well plate provided by the Seahorse detection kit (Agilent, 103275-100). Related measurements were carried out following instructions.

[7] = tested on: HuH7 cells; assay: MTT assay, proliferation inhibition of hepatocellular-carcinoma cell line HuH7; format: cell-based
Description: as §1, §4, §5

[8] = tested on: oxidative phosphorylation in mitochondria; assay: Measurement of oxidative phosphorylation (ATP production) in mitochondria extracted from HuH7 cells; format: biochemical; settings: concentration gradient and incubation time gradient
Description: Based on the above results, effect of baicalein on oxidative phosphorylation needs to be clarified initially. Therefore, effects of different concentrations of baicalein on oxidative phosphorylation are tested at a cellular level. […] Further analysis finds that, baicalein (100 μM) can improve basal respiration value, maximum respiration value and ATP production in oxidative phosphorylation. […] In order to further confirm effect of baicalein on the oxidative phosphorylation, the present disclosure further extracts mitochondria, a main site where the oxidative phosphorylation locates, and tests effect of baicalein concentration gradient and incubation time gradient on oxidative phosphorylation in the mitochondria. […] At this point, the present disclosure discovers a natural activator of the oxidative phosphorylation, the baicalein. […] Measurement of oxidative phosphorylation with Seahorse XF (Agilent): HuH7 cells, HepG2 cells and mitochondria were prepared. 1,000 cells or 4 μg mitochondria were added to the well plate provided by the Seahorse detection kit (Agilent, 103275-100). Related measurements were carried out following instructions. Measurement of oxidative phosphorylation (ATP production) with QQQ-MS (AB Sciex): mitochondria were extracted from HuH7 cells. A reaction system was prepared according to Table 1 below. 4 μg of mitochondria was added to a 100 μL reaction system. […]

**Q.** With `O=c1cc(-c2ccccc2)oc2cc(O)c(O)c(O)c12` [baicalein] as the compound, how does the “therapeutic effect on mice with hepatocellular carcinoma” value [1] read?
**A.** significant therapeutic effect

**Q.** What about the liver toxicity [2] of the same compound?
**A.** no liver toxicity

**Q.** And the “weight loss of mice” value [2]?
**A.** no weight loss

**Q.** And the glycolysis [3]?
**A.** inhibits the glycolysis

**Q.** What about the “ATP production in oxidative phosphorylation” value ([3]; baicalein 100 μM) of the same compound?
**A.** can improve

**Q.** And the basal respiration value ([3]; baicalein 100 μM)?
**A.** can improve

**Q.** What about the maximum respiration value ([3]; baicalein 100 μM) of the same compound?
**A.** can improve

**Q.** What about the “level of oxidative phosphorylation” value ([3]; different concentrations of baicalein) of the same compound?
**A.** activates the oxidative phosphorylation in a concentration dependent manner; also recorded: increasing level of the oxidative phosphorylation

**Q.** And the proliferation inhibition effect [4]?
**A.** significantly inhibits

**Q.** And the “anti-cancer activity after knockdown of a key enzyme of oxidative phosphorylation” value [5]?
**A.** greatly weakened

**Q.** And the glycolysis [6]?
**A.** inhibits the glycolysis

**Q.** And the “level of oxidative phosphorylation” value [6]?
**A.** increasing level of the oxidative phosphorylation

**Q.** What about the proliferation inhibition effect [7] of the same compound?
**A.** significantly inhibits

**Q.** And the “oxidative phosphorylation in the mitochondria” value [8]?
**A.** activation of the oxidative phosphorylation in a concentration dependent and time dependent manner
